Assay results taken from patent publication US20020028953A1, “Process for preparing 6-(4-chlorophenyl)-2,2-dimethyl-7-phenyl-2,3-dihydro-1H-pyrrolizin-5-yl-acetic acid” (Merckle GmbH, priority 2000, published 2002).
Where two headings read alike, the source gives them in different places.

Legend:
[1] = analgesic action; details: result in words
[2] = molecular target: cyclooxygenase (CO) and lipoxygenase (LO); assay: inhibitory action on the enzymes cyclooxygenase (CO) and lipoxygenase (LO); type: biochemical
[3] = stability of the solid form on drying, storage and aging; type: physicochemical

SMILES	analgesic action [1]	IC50LO/IC50CO ([2]; ratio of IC50 lipoxygenase to IC50 cyclooxygenase)	cyclooxygenase and/or lipoxygenase inhibitor ([2]; result in words)	chemical stability / oxidative decomposition ([3]; listed as Polymorph A)	stability on drying and storage ([3]; solvates release solvent at room temperature)	chemical stability / oxidative decomposition [3]
CC1(C)Cc2c(-c3ccccc3)c(-c3ccc(Cl)cc3)c(CC(=O)O)n2C1 [polymorph A, 6-(4-chlorophenyl)-2,2-dimethyl-7-phenyl-2,3-dihydro-1H-pyrrolizin-5-ylacetic Acid]	strong	~1	potent	high chemical stability	stable on drying and storage	–
CC1(C)Cc2c(-c3ccccc3)c(-c3ccc(Cl)cc3)c(CC(=O)O)n2C1 [amorphous ML 3000]	–	–	–	–	–	relatively severe oxidative decomposition
